Results published in US8148089B2, “Alpha-synuclein kinase” (Elan Pharma International Limited, priority 2006, dated 2012).
Like-named read-outs stand apart in the source and are kept apart here.

Assays:
[1] = test system: synuclein phosphorylation in rat ventral mesencephalon cultures (E46K-Synuclein plus ca-PLK2 lentivirus); assay: Synuclein phosphorylation in RVM transduced with E46K-Synuclein and caPLK2; assay type: cell-based; conditions: for EC50: inhibitor 2 h on DIV 17
Protocol: (§1) Rat Ventral Mesencephalon (RVM) cultures were prepared from E15 Wistar rats. The RVM cultures were cultured for 2 days and transduced with 0.75 MOI E46K-Synuclein lentivirus alone, or 0.75 MOI E46K-Synuclein lentivirus plus 0.75 MOI ca-PLK2 lentivirus. […] Transduced cultures were maintained in neuronal media with B27/1% FBS and 37° C./5% CO2 until treated with inhibitors. On DIV 17 (which corresponds to 15 days after viral transduction of the cultures) cells were treated with inhibitors for two hours. Cells were then harvested as detailed above in neuronal media with B27/1% FBS. A Micro BCA (Pierce) total protein assay, and total synuclein and phospho-synuclein ELISAs were performed on each plate of treated cells using standard methods.
In caPLK2 the polo-box has been deleted, activating the Thr to Asp mutation in the kinase activation loop.

[2] = test system: synuclein phosphorylation in MCC; assay: Synuclein phosphorylation in MCC treated with TBB; assay type: cell-based, mouse; conditions: even at concentrations of 100 μM; data not shown
Protocol: (§2) Mouse cortical cultures from fetal (i) Swiss-Webster, (ii) C56BL/6 WT and (iii) C56BL/6 E46K-Synuclein Trangenic mice were prepared and maintained in B27/DMEM/1% Penicillin-Streptomycin at 37° C./10% CO2 for three to fourteen days and then treated with kinase inhibitors.
(§3) Cultures were exposed to inhibitors for two hours in B27/DMEM/1% Penicillin-Streptomycin. Cells were immediately washed in 100 μL of PBS plus Mg^2+ and Ca^2+, and harvested in ice-cold CEB minus EGTA plus protease inhibitors, frozen on dry ice and stored at −80° C. until processed. A Micro BCA (Pierce) total protein assay, and total synuclein and phospho-synuclein ELISAs were performed on each plate of treated cells using standard methods.
To confirm that the inhibitory effect DMAT is due to inhibition of […], MCC were treated with TBB, a very specific CKII inhibitor. TBB had no effect on synuclein phosphorylation, even at concentrations of 100 μM (data not shown). Thus, we are confident that the inhibitory effect of DMAT on synuclein phosphorylation is due to its direct activity on PLK2 and not CKII.

[3] = test system: synuclein phosphorylation in the cellular paradigms tested; assay: Inhibition of synuclein phosphorylation, several cellular paradigms; assay type: cell-based
[4] = target: T1, over-expressed PLK3 (293) (Homo sapiens, UniProt Q9H4B4); assay: Synuclein phosphorylation in HEK-293 cells over-expressing synuclein and PLK3; assay type: cell-based; conditions: for Rank order of potency, Synuclein + PLK3: Table 22
T1 construct: expressed in transfected cells; host or cells: HEK-293 naive cells, CMV-promoter expression vector
T1 sequence (Q9H4B4 whole entry): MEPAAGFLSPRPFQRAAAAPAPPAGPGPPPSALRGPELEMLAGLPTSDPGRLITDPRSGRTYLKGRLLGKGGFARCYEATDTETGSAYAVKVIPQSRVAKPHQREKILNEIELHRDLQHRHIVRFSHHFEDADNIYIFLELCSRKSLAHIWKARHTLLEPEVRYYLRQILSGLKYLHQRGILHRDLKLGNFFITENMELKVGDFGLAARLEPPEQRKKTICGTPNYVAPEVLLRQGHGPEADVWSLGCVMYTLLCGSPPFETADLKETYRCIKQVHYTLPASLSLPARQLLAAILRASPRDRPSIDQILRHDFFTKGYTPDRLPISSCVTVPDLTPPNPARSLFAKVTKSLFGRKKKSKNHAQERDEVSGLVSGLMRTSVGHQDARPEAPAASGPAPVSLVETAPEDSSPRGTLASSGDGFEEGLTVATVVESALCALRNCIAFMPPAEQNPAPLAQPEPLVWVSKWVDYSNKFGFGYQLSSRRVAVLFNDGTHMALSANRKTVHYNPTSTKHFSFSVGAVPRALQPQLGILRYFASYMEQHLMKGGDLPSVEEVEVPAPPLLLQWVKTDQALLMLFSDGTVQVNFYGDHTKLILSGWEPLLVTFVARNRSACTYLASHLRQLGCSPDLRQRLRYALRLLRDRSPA
Protocol: (§4) All vectors had the sequence coding for the protein of interest. Transfection was accomplished using Lipofectamine 2000 (Invitrogen, Carlsbad, Calif.) with 0.08 μg vector. Cells were washed and harvested 48 hours post-transfection. A Micro BCA (Pierce) total protein assay and total synuclein and phospho-synuclein ELISAs were performed on each plate of treated cells.

[5] = target: T2, over-expressed PLK4 (293) (Homo sapiens, UniProt O00444); assay: Synuclein phosphorylation in HEK-293 cells over-expressing synuclein and PLK4; assay type: cell-based; conditions: for EC50: HEK-293, Example 16, read-out: EC50 based on percent inhibition of synuclein phosphorylation, Synuclein + PLK4
T2 sequence (O00444 1-970): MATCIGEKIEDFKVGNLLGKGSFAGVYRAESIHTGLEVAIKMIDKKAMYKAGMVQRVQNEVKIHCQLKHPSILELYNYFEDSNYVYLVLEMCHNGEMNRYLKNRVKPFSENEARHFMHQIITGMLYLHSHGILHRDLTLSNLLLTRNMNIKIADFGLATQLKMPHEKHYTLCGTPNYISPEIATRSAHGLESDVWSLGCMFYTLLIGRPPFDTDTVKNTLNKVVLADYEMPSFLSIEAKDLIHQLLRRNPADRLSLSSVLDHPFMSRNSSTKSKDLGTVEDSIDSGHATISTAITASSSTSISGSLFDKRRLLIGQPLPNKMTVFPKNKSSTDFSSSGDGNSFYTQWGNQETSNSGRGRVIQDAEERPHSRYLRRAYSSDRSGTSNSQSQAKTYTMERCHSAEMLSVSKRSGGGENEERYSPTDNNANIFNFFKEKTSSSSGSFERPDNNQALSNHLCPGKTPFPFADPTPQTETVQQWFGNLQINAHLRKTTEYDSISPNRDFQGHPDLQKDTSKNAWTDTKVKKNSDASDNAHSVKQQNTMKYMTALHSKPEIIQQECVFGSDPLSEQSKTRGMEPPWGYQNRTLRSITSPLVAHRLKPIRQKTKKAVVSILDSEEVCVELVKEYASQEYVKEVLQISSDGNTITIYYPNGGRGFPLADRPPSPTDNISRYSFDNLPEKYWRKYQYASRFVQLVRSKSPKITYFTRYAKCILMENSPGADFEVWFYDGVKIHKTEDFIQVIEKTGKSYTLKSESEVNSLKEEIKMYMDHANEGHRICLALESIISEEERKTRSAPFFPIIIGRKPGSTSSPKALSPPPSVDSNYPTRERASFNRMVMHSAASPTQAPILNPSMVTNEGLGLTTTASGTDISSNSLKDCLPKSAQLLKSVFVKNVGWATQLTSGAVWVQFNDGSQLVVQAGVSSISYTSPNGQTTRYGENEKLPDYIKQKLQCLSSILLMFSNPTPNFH
Protocol: as §4

[6] = target: T3, over-expressed PLK2 (293) (Homo sapiens, UniProt Q9NYY3); assay: Synuclein phosphorylation in HEK-293 cells over-expressing synuclein and PLK2; assay type: cell-based; conditions: for Rank order of potency, Over-Expressed PLK2 (293): Table 19; for Rank order of potency, Synuclein + PLK2: Table 22
T3 construct: expressed in transfected cells; host or cells: HEK-293 naive cells, CMV-promoter expression vector, Lipofectamine 2000
T3 sequence (Q9NYY3 whole entry): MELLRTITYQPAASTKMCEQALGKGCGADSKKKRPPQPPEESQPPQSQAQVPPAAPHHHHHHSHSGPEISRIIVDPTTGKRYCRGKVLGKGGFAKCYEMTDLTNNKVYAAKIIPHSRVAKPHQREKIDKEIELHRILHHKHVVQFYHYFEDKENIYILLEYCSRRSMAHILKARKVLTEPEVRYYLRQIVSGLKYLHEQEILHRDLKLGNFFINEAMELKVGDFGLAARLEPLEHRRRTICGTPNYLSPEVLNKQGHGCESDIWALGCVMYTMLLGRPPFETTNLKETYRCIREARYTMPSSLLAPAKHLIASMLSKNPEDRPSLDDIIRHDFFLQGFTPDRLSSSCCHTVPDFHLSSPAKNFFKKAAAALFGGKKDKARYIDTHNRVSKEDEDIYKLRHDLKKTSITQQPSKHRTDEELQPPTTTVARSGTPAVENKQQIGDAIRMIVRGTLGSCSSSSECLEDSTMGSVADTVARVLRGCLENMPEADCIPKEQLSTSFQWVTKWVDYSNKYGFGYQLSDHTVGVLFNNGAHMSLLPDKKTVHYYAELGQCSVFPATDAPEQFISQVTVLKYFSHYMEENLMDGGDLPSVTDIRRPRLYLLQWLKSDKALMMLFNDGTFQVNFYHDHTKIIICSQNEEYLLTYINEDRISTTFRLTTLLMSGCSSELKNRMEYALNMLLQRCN
Protocol: as §4

PLK2 = PLK2 (Homo sapiens, UniProt Q9NYY3); assay: Straight biochemical assay: PLK2-driven synuclein phosphorylation in vitro; conditions: Table 19
Sequence of PLK2 (Q9NYY3 whole entry): as above

[7] = test system: synuclein phosphorylation in rat ventral mesencephalon cultures (E46K-Synuclein lentivirus); assay: Synuclein phosphorylation in RVM transduced with E46K-Synuclein; assay type: cell-based
Protocol: as §1

[8] = test system: synuclein phosphorylation in C56BL/6 E46K-Synuclein transgenic mouse cortical cultures; assay type: cell-based
Protocol: as §2, §3

endogenous kinase (293) = assay: Synuclein phosphorylation by endogenous kinase in HEK-293 cells (synuclein + vector); assay type: cell-based, human
Protocol: as §4

[9] = target: synuclein phosphorylation by endogenous kinase in C56BL/6 WT mouse cortical cultures; assay: Synuclein phosphorylation in WT mouse cortical cultures (WT-MCC); assay type: cell-based; conditions: inhibitor 2 h; phospho-synuclein ELISA
Protocol: as §2, §3

Compound `COC[C@H]1OC(=O)c2coc3c2[C@@]1(C)C1=C(C3=O)[C@@H]2CCC(=O)[C@@]2(C)C[C@H]1OC(C)=O` [Wortmannin] has an EC50 ([1]; Rattus norvegicus) of over 100 µM.

`Brc1c(Br)c(Br)c2[nH]nnc2c1Br` [TBB, 4,5,6,7-Tetrabromo-2-azabenzimidazole] was tested, and the “effect on synuclein phosphorylation” value [2] was “no effect”.

`CC[C@@H]1C(=O)N(C)c2cnc(Nc3ccc(C(=O)NC4CCN(C)CC4)cc3OC)nc2N1C1CCCC1` [ELN-481574-2, 4-[[(7r)-8-cyclopentyl-7-ethyl-5,6,7,8-tetrahydro-5-methyl-6-oxo-2-pteridinyl]amino]-3-methoxy-n-(1-methyl-4-piperidinyl)-benzamide] gave an EC50 ([3]; most EC50 values, all cellular paradigms, read-out: EC50 values in cellular paradigms) of at most 0.1 µM.

`NC(=O)c1sc2c([N+](=O)[O-])cc(C(F)(F)F)cc2[n+]1[O-]` [ELN-481080] was tested, and the “Rank order of potency, Synuclein + PLK3” value [4] was 3, the “inhibition of synuclein phosphorylation by over-expressed PLK3” value ([4]; concentrations of 30-100 μM) was 30-40% and the EC50 [5] was over 100 µM. For the same compound, the “inhibition of synuclein phosphorylation by over-expressed PLK4” value ([5]; concentrations of 30-100 μM) was 30-40%, the EC50 ([3]; range over (most of) the cell types tested, read-out: EC50 values for inhibition of synuclein phosphorylation in the cellular paradigms) was 12 to 38 µM and the EC50 ([1]; Rattus norvegicus) was 25.2 µM. The “Rank order of potency, Over-Expressed PLK2 (293)” value [6] was 5, the “Rank order of potency, Synuclein + PLK2” value [6] was 3 and the “Rank order of potency, Straight Biochemical” value (PLK2) was 3.

With `CN(C)c1nc2c(Br)c(Br)c(Br)c(Br)c2[nH]1` [DMAT, 2-Dimethylamino-4,5,6,7-tetrabromo-1H-benzimidazole] the “Rank order of potency, RVM E46K-Synuclein” value ([7]; Table 19) was 4, the “Rank order of potency, Synuclein + PLK3” value [4] was 2 and the EC50 [5] was 74.3 µM. The “Rank order of potency, Synuclein + PLK4” value ([5]; Table 22) was 2, the EC50 ([3]; Homo sapiens, HEK293, read-out: EC50 values for the over-expressed PLKs) was 14 to 74 µM and the EC50 ([3]; read-out: EC50 values for inhibition of synuclein phosphorylation in the cellular paradigms) was 16 to 33 µM. For the same compound, the “Rank order of potency, E46K-Syn TG MCC” value ([8]; Table 19) was 4, the “Rank order of potency, Synuclein + Vector” value (endogenous kinase (293); Table 22) was 2 and the EC50 ([1]; Rattus norvegicus) was 28.5 µM. For the same compound, the “Rank order of potency, RVM E46K-Synuclein caPLK2” value ([1]; Table 19) was 4, the “Rank order of potency, Over-Expressed PLK2 (293)” value [6] was 4 and the “Rank order of potency, Synuclein + PLK2” value [6] was 2. For the same compound, the “Rank order of potency, Straight Biochemical” value (PLK2) was 2.

Scytonemin was tested, and the EC50 ([7]; inhibitor 2 h on DIV 17) was over 100 µM, the “inhibition of 50% of synuclein phosphorylation” value ([3]; in any of the cells or in the in vitro assay) was “did not inhibit 50% of synuclein phosphorylation” and the EC50 ([8]; inhibitor 2 h, phospho-synuclein ELISA, read-out: E46K-Syn TG MCC (EC50)) was over 100 µM. The EC50 (endogenous kinase (293); Table 18) was over 100 µM, the EC50 [1] was over 100 µM and the EC50 [9] was over 100 µM.
